Literature values in US20070014831A1, “Biodegradable occlusive device with moisture memory” (priority 2005, published 2007).

Columns and labels:
[1] = J Biomater Sci Polymer Edn 1999;10:63-78
[2] = in vivo
[3] = system: tissue culture

Structure (SMILES)	cytotoxicity compared with glutaraldehyde [1]	glutaraldehyde concentration used to crosslink materials above which a persistent foreign-body reaction occurred [2]	concentration at which cytotoxic [3]	concentration at which cytotoxic in tissue culture ([3]; in tissue culture, as low as)
COC(=O)C1=CO[C@@H](O)[C@@H]2C(CO)=CC[C@H]12 [Genipin]	significantly less cytotoxic than glutaraldehyde			
O=CCCCC=O [glutaraldehyde]		above 0.05%	10-25 ppm	≥ 3 ppm
